Assay results from EP1752193A1, “Use of one or more cyclic 1,2-alkylene carbonates as stabilizer and activity enhancer for preservatives, corresponding composition” (Dr. Straetmans Chemische Produkte GmbH, priority 2005, dated 2007).

Key:
Format in all cases: cell-based
Mikroorganismen = test: synergistic enhancement of antimicrobial agents by cyclic 1,2-alkylene carbonates; settings: combination of cyclic 1,2-alkylene carbonate with preservative or antimicrobial additive
Description: Die Verwendung dieser zyklischen 1,2-Alkylencarbonate zur Herstellung von Mischungen mit herkömmlichen Konservierungsmitteln und der erfindungsgemäße Einsatz dieser Mischungen in kosmetischen oder dermatologischen Anwendungen zeigte überraschenderweise, dass die Effizienz der Konservierungsmittel in Konzentrationen, die für sich allein keine antimikrobielle Wirkung mehr zeigten, durch den Zusatz der zyklischen 1,2-Alkylencarbonate erheblich gesteigert werden kann und somit der Anteil der Konservierungsmittel in den entsprechenden Produkten signifikant gesenkt werden konnte.
Zyklische 1,2-Alkylencarbonate, für die dieser synergistische Effekt nachgewiesen werden konnten, finden sich bevorzugt in der Gruppe der linearen und verzweigten 1,2-Alkylencarboate mit einer Kettenlänge von n = 4 - 8, z.B. 1,2-Butylencarbonat, 1,2-Pentylencarbonat, 1,2-Hexylencarbonat und 1,2-Octylencarbonat.
Konservierungsmittel im Sinne der Erfindung, für die dieser synergistische Effekt nachgewiesen werden konnte, sind Methylparaben, Ethylparaben, Propylparaben, Isopropylparaben, Butylparaben und die Mischungen dieser Parabene, Phenoxyethanol, Benzoesäure und ihre Ester und Salze, Sorbinsäure und ihre Salze sowie Benzylalkohol. Die zu erwartenden synergistischen Effekte von 1,2-Alkylencarbonaten mit Iodopropinylbutylcarbamat, Formaldehyd and Formaldehyd-Abspalter (z.B. DMDM-Hydantoin, Imidazolinylharnstoff, Paraformaldehyd), Chlorphenesin, Bronopol, Methyldibromglutaronitril, Dehydracetsäure und ihre Salze, Polyaminopropylbiguanide, Chlorhexidin und seine Derivate (z.B. Chlorhexidinacetat, Chlorhexidingluconat, Chlorhexidinhydrochlorid), Methylisothiazolinon und Methylchloroisothiazolinone neben den in Anhang 6, Teil A und B der Kosmetikverordnung aufgeführten weiteren Stoffklassen oder Mischungen der genannten Konservierungsmittel werden ebenfalls in dieser Erfindung beansprucht.
Multifunktionellen Kosmetikadditive mit antimikrobiellen Eigenschaften im Sinne dieser Erfindung finden sich vor allem in der Gruppe der mittelkettigen polaren Substanzen. Diese Gruppe umfasst Polyole mit 5 - 12 Kohlenstoffatomen, wie z.B. Pentylenglycol, Hexylenglycol, 1,2-Hexandiol, Caprylyl Glycol oder 2-Methyl-1,3-propandiol, Monoester aus Glycerin und Fettsäuren der Kettenlänge n = 6 - 12, wie z.B. Glyceryl Caprylate, Glyceryl Caprate oder Glyceryl Laurate, Ether der Glycerins mit linearen oder verzweigten Alkanolen der Kettenlänge n = 6 - 12, wie z.B. das Ethylhexylglycerin sowie N-Acylderivate von Aminosäuren, z.B. N.Undecenylglycin.

Pseudomonas Aeruginosa = test: microbiological challenge test (preservative efficacy, Ph. Eur. 1997 5.1.3); settings: emulsion with 0,50 preservative, 2,00 carbonate where named
Description: (§1) Ergebnisse des mikrobiologischen Belastungstests, durchgeführt nach europäischem Arzneibuch 1997: 5.1.3 Prüfung auf ausreichende Konservierung (entspricht Deutschem Arzneibuch: VIII.14) für die Beispielrezeptur nach 1.:
(§2) Ergebnisse des mikrobiologischen Belastungstests, durchgeführt nach europäischem Arzneibuch 1997: 5.1.3 Prüfung auf ausreichende Konservierung (entspricht Deutschem Arzneibuch: VIII.14) für die Beispielrezeptur nach 3.:
(§3) Ergebnisse des mikrobiologischen Belastungstests, durchgeführt nach europäischem Arzneibuch 1997: 5.1.3 Prüfung auf ausreichende Konservierung (entspricht Deutschem Arzneibuch: VIII.14) für die Beispielrezeptur nach 4.:
(§4) Ergebnisse des mikrobiologischen Belastungstests, durchgeführt nach europäischem Arzneibuch 1997: 5.1.3 Prüfung auf ausreichende Konservierung (entspricht Deutschem Arzneibuch: VIII.14) für die Beispielrezeptur nach 5.:
(§5) Ergebnisse des mikrobiologischen Belastungstests, durchgeführt nach europäischem Arzneibuch 1997: 5.1.3 Prüfung auf ausreichende Konservierung (entspricht Deutschem Arzneibuch: VIII.14) für die Beispielrezeptur nach 6.: […]

Escherichia Coli = test: as above; settings: emulsion with 0,50 preservative, 2,00 carbonate where named
Description: as §1, §2, §3, §4, §5

Candida Albicans = test: as above; settings: emulsion with 0,50 preservative, 2,00 carbonate where named
Description: as §1, §2, §3, §4, §5

Staphylococcus aureus = test: as above; settings: emulsion with 0,50 preservative, 2,00 carbonate where named
Description: as §1, §2, §3, §4, §5

Aspergillus Niger = test: as above; settings: emulsion with 0,50 preservative, 2,00 carbonate where named
Description: as §1, §2, §3, §4, §5

| SMILES | synergistische Effekt (Mikroorganismen) | Koloniebildende Einheiten / g nach Beimpfung mit: Pseudomonas Aeruginosa (Pseudomonas Aeruginosa; 0 Tage (inoculum)) | Koloniebildende Einheiten / g nach Beimpfung mit: Pseudomonas Aeruginosa (Pseudomonas Aeruginosa; 2 Tage) | Koloniebildende Einheiten / g nach Beimpfung mit: Pseudomonas Aeruginosa (Pseudomonas Aeruginosa; 7 Tage) | Koloniebildende Einheiten / g nach Beimpfung mit: Pseudomonas Aeruginosa (Pseudomonas Aeruginosa; 14 Tage) | Koloniebildende Einheiten / g nach Beimpfung mit: Pseudomonas Aeruginosa (Pseudomonas Aeruginosa; 28 Tage) | Koloniebildende Einheiten / g nach Beimpfung mit: Escherichia Coli (Escherichia Coli; 0 Tage (inoculum)) | Koloniebildende Einheiten / g nach Beimpfung mit: Escherichia Coli (Escherichia Coli; 2 Tage) | Koloniebildende Einheiten / g nach Beimpfung mit: Escherichia Coli (Escherichia Coli; 7 Tage) | Koloniebildende Einheiten / g nach Beimpfung mit: Escherichia Coli (Escherichia Coli; 14 Tage) | Koloniebildende Einheiten / g nach Beimpfung mit: Escherichia Coli (Escherichia Coli; 28 Tage) | Koloniebildende Einheiten / g nach Beimpfung mit: Candida Albicans (Candida Albicans; 0 Tage (inoculum)) | Koloniebildende Einheiten / g nach Beimpfung mit: Candida Albicans (Candida Albicans; 2 Tage) | Koloniebildende Einheiten / g nach Beimpfung mit: Candida Albicans (Candida Albicans; 7 Tage) | Koloniebildende Einheiten / g nach Beimpfung mit: Candida Albicans (Candida Albicans; 14 Tage) | Koloniebildende Einheiten / g nach Beimpfung mit: Candida Albicans (Candida Albicans; 28 Tage) | Koloniebildende Einheiten / g nach Beimpfung mit: Staphylococcus aureus (Staphylococcus aureus; 0 Tage (inoculum)) | Koloniebildende Einheiten / g nach Beimpfung mit: Staphylococcus aureus (Staphylococcus aureus; 2 Tage) | Koloniebildende Einheiten / g nach Beimpfung mit: Staphylococcus aureus (Staphylococcus aureus; 7 Tage) | Koloniebildende Einheiten / g nach Beimpfung mit: Staphylococcus aureus (Staphylococcus aureus; 14 Tage) | other results |
| --- | --- | --- | --- | --- | --- | --- | --- | --- | --- | --- | --- | --- | --- | --- | --- | --- | --- | --- | --- | --- | --- |
| CCC1COC(=O)O1 (stereo not drawn) [BC, 1,2-Butylencarbonat] | Besonders ausgeprägt Effekte |  |  |  |  |  |  |  |  |  |  |  |  |  |  |  |  |  |  |  |  |
| OCc1ccccc1 [Benzylalkohol] |  | 210000 Koloniebildende Einheiten / g | 40000 Koloniebildende Einheiten / g | 12000 Koloniebildende Einheiten / g | 1000 Koloniebildende Einheiten / g | <10 Koloniebildende Einheiten / g | 810000 Koloniebildende Einheiten / g | 100000 Koloniebildende Einheiten / g | 100000 Koloniebildende Einheiten / g | 52000 Koloniebildende Einheiten / g | 8000 Koloniebildende Einheiten / g | 410000 Koloniebildende Einheiten / g | 70000 Koloniebildende Einheiten / g | 50000 Koloniebildende Einheiten / g | 50000 Koloniebildende Einheiten / g | 45000 Koloniebildende Einheiten / g | 250000 Koloniebildende Einheiten / g | 100000 Koloniebildende Einheiten / g | 4000 Koloniebildende Einheiten / g | <10 Koloniebildende Einheiten / g | Koloniebildende Einheiten / g nach Beimpfung mit: Staphylococcus aureus (Staphylococcus aureus; 28 Tage): <10 Koloniebildende Einheiten / g; Koloniebildende Einheiten / g nach Beimpfung mit: Aspergillus Niger (Aspergillus Niger; 0 Tage (inoculum)): 170000 Koloniebildende Einheiten / g; Koloniebildende Einheiten / g nach Beimpfung mit: Aspergillus Niger (Aspergillus Niger; 2 Tage): 64000 Koloniebildende Einheiten / g; Koloniebildende Einheiten / g nach Beimpfung mit: Aspergillus Niger (Aspergillus Niger; 7 Tage): 60000 Koloniebildende Einheiten / g; Koloniebildende Einheiten / g nach Beimpfung mit: Aspergillus Niger (Aspergillus Niger; 14 Tage): 59000 Koloniebildende Einheiten / g; Koloniebildende Einheiten / g nach Beimpfung mit: Aspergillus Niger (Aspergillus Niger; 28 Tage): 61000 Koloniebildende Einheiten / g |
| CCCCCCC(O)CO (stereo not drawn) [Caprylyl Glycol] | Besonders ausgeprägte Effekte |  |  |  |  |  |  |  |  |  |  |  |  |  |  |  |  |  |  |  |  |
| CCCCCCCC(=O)OCC(O)CO (stereo not drawn) [Glyceryl Caprylate] | Besonders ausgeprägte Effekte |  |  |  |  |  |  |  |  |  |  |  |  |  |  |  |  |  |  |  |  |
| CCCC1COC(=O)O1 (stereo not drawn) [PC, 1,2-Pentylencarbonat] | Besonders ausgeprägt Effekte |  |  |  |  |  |  |  |  |  |  |  |  |  |  |  |  |  |  |  |  |
| OCCOc1ccccc1 [Phenoxyethanol] |  | 600000 Koloniebildende Einheiten / g | 8000 Koloniebildende Einheiten / g | 10000 Koloniebildende Einheiten / g | 10000 Koloniebildende Einheiten / g | 10000 Koloniebildende Einheiten / g | 3000000 Koloniebildende Einheiten / g | 100000 Koloniebildende Einheiten / g | 100000 Koloniebildende Einheiten / g | 100000 Koloniebildende Einheiten / g | 70000 Koloniebildende Einheiten / g | 310000 Koloniebildende Einheiten / g | 100000 Koloniebildende Einheiten / g | 100000 Koloniebildende Einheiten / g | 100000 Koloniebildende Einheiten / g | 80000 Koloniebildende Einheiten / g | 380000 Koloniebildende Einheiten / g | 100000 Koloniebildende Einheiten / g | 100000 Koloniebildende Einheiten / g | 84000 Koloniebildende Einheiten / g | Koloniebildende Einheiten / g nach Beimpfung mit: Staphylococcus aureus (Staphylococcus aureus; 28 Tage): 80000 Koloniebildende Einheiten / g; Koloniebildende Einheiten / g nach Beimpfung mit: Aspergillus Niger (Aspergillus Niger; 0 Tage (inoculum)): 320000 Koloniebildende Einheiten / g; Koloniebildende Einheiten / g nach Beimpfung mit: Aspergillus Niger (Aspergillus Niger; 2 Tage): 60000 Koloniebildende Einheiten / g; Koloniebildende Einheiten / g nach Beimpfung mit: Aspergillus Niger (Aspergillus Niger; 7 Tage): 60000 Koloniebildende Einheiten / g; Koloniebildende Einheiten / g nach Beimpfung mit: Aspergillus Niger (Aspergillus Niger; 14 Tage): 60000 Koloniebildende Einheiten / g; Koloniebildende Einheiten / g nach Beimpfung mit: Aspergillus Niger (Aspergillus Niger; 28 Tage): 50000 Koloniebildende Einheiten / g |
